According to article PMC12154443, “Design, Synthesis, Anti-Tumor Activity and Molecular Docking Studies of Novel Triphenylphosphine-Containing Formononetin Derivatives” (International Journal of Molecular Sciences, 2025):
Like-named read-outs stand apart in the source and are kept apart here.

Columns and labels:
[1] = test system: human gastric cancer cells (HGC-27); experiment: MTT cell viability assay, HGC-27; type: cell-based; settings: 48 h, HGC-27 cells, read-out: half inhibitory concentration (IC50), HGC-27
Procedure: (§1) The human embryonic kidney cells (HEK-293), human non-small-cell lung cancer (A549), human breast cancer cells (MCF-7), and human prostate cancer (PC-3M) cells used in this study were obtained from the Beijing BNCC Biotechnology Research Institute (Beijing, China), and human gastric cancer cells (HGC-27) were obtained from Dalian Meilun Biotechnology Co., Ltd. (Dalian, China).
(§2) The cell lines used in this study (A549, MCF-7, PC-3M, HGC-27, HEK-293) were removed from the CO2 incubator and seeded into 96-well plates at a density of 5 × 10^4/mL. Following a 24-h incubation period under standard CO2 conditions, we added […] of sample solutions at various concentrations ([…], 12.5, 25, 50, 100 μmol/L) to each well. Each concentration was tested in six replicates. The control group received 0.1% DMSO in serum-free medium (SFM). After 48 h of the drug effect, 10 µL of MTT solution was added to each well under light-avoidance conditions, and incubation was continued under light-avoidance conditions for 4 h; the supernatant was discarded, and 150 μL of DMSO was added to dissolve the resulting formazan crystals. After 10 min of shaking to ensure the complete dissolution and uniform color development of purple crystals, the absorbance (OD) was measured at 490 nm using a microplate reader.
(§3) The inhibition rate was calculated as: Inhibition rate (%) = [(OD value of control group-OD value of administered group)/(OD value of control group-OD value of zeroing group)] × 100%, where OD value of zeroing group represents the zeroing group.
(§4) The IC50 values of the drugs were calculated by fitting using GraphPad Prism v.6.01 (GraphPad Software, San Diego, CA, USA), and it was used as a criterion for selecting the appropriate drug concentration for subsequent experiments.

[2] = test system: human breast cancer cells (MCF-7); experiment: MTT cell viability assay, MCF-7; type: cell-based
Procedure: as §1, §2, §3, §4

[3] = test system: human embryonic kidney cells (HEK-293); experiment: MTT cell viability assay, normal HEK-293 cells; type: cell-based; settings: HEK293, 48 h, read-out: half inhibitory concentration (IC50), HEK-293
Procedure: as §1, §2, §3, §4

[4] = test system: human prostate cancer (PC-3M) cells; experiment: MTT cell viability assay, PC-3M; type: cell-based; settings: 48 h, read-out: half inhibitory concentration (IC50), PC-3M
Procedure: as §1, §2, §3, §4

[5] = test system: human non-small-cell lung cancer (A549); experiment: MTT cell viability assay, A549; type: cell-based; settings: A549 cells; for IC50: Homo sapiens, MTT, 48 h, read-out: half inhibitory concentration (IC50), A549; for increase in cytostatic effect relative to formononetin: from IC50 values
Procedure: The human embryonic kidney cells (HEK-293), human non-small-cell lung cancer (A549), human breast cancer cells (MCF-7), and human prostate cancer (PC-3M) cells used in this study were obtained from the Beijing BNCC Biotechnology Research Institute (Beijing, China), and human gastric cancer cells (HGC-27) were obtained from Dalian Meilun Biotechnology Co., Ltd. (Dalian, China). […] Each concentration was tested in six replicates. The control group received 0.1% DMSO in serum-free medium (SFM). […] The inhibition rate was calculated as: Inhibition rate (%) = [(OD value of control group-OD value of administered group)/(OD value of control group-OD value of zeroing group)] × 100%, where OD value of zeroing group represents the zeroing group.

[6] = Solubility observed during the experimental process; type: physicochemical; settings: room temperature, formononetin in water, methanol, ethanol, acetone, tetrahydrofuran, ethyl acetate, dichloromethane, chloroform, derivatives in acetate
Procedure: Therefore, using procedures reported in the previous studies, we employed a molar ratio of 1:3 between the intermediate and triphenylphosphine. […] For the synthesis of fatty acid esters, dichloromethane was employed as the reaction solvent, and a 1.5-fold molar excess of the corresponding acid was added. The reaction was conducted over a 1–4 h period, which enabled the complete conversion of formononetin and maximum yield. […] The introduction of triphenylphosphine […].

[7] = MCF7, MCF-7 cells, read-out: IC50 against MCF-7 cells
[8] = MCF7, 48 h, MCF-7 cells, read-out: half inhibitory concentration (IC50), MCF-7

| SMILES | IC50 [1] [µM] | IC50 [2, 7] [µM] | IC50 [3] [µM] | IC50 [4] [µM] | IC50 [5] [µM] | IC50 [2, 8] [µM] | increase in cytostatic effect relative to formononetin [5] [fold] | solubility (observation) [6] |
| --- | --- | --- | --- | --- | --- | --- | --- | --- |
| O=c1[nH]cc(F)c(=O)[nH]1 [5-FU, 5-fluorouracil, reference compound] | 36.2 ± 3.02 | > 100 | > 100 | 48.1 ± 3.76 | 22.9 ± 3.54 | – | – | – |
| COc1ccc(-c2coc3cc(OC(=O)CCCCCCBr)ccc3c2=O)cc1 [1b, 7-O-(7-bromoheptanoyl)-formononetin] | 79.1 ± 5.65 | – | 70.7 ± 5.61 | – | – | – | – | – |
| COc1ccc(-c2coc3cc(OC(=O)CCCCCCCCCC[P+](c4ccccc4)(c4ccccc4)c4ccccc4)ccc3c2=O)cc1 [2f, 7-O-(11-bromoundecanoyl)-formononetin-triphenylphosphine coupling] | 30.4 ± 2.12 | – | 51.7 ± 5.48 | 27.9 ± 2.69 | 20.6 ± 1.21 | 52.3 ± 6.85 | ~7 | – |
| COc1ccc(-c2coc3cc(OC(=O)CCCCCC[P+](c4ccccc4)(c4ccccc4)c4ccccc4)ccc3c2=O)cc1 [2b, 7-O-(7-bromoheptanoyl)-formononetin-triphenylphosphine coupling] | 32.1 ± 5.96 | – | 46.2 ± 3.99 | 69.2 ± 3.98 | 42.2 ± 3.69 | 46.5 ± 4.94 | – | – |
| CCCCCCCCCCC(=O)Oc1ccc2c(=O)c(-c3ccc(OC)cc3)coc2c1 [3f, 7-O-undecanoyl-formononetin] | 45.4 ± 5.24 | – | 75 ± 5.49 | 46.7 ± 9.24 | 70.1 ± 9.67 | 85 ± 5.74 | – | – |
| COc1ccc(-c2coc3cc(OC(=O)CCCCCCCCCCC[P+](c4ccccc4)(c4ccccc4)c4ccccc4)ccc3c2=O)cc1 [2g, 7-O-(12-bromododecanoyl)-formononetin-triphenylphosphine coupling] | 29.4 ± 2.52 | – | 59.6 ± 5.65 | 41.2 ± 4.4 | 23.6 ± 2.25 | 46.6 ± 4.95 | ~7 | – |
| COc1ccc(-c2coc3cc(OC(=O)CCCCCCCCC[P+](c4ccccc4)(c4ccccc4)c4ccccc4)ccc3c2=O)cc1 [2e, 7-O-(10-bromodecanoyl)-formononetin-triphenylphosphine coupling] | 39.2 ± 2.68 | – | 64 ± 3.47 | 97.9 ± 6.33 | 39 ± 1.65 | 85.5 ± 4.99 | – | – |
| COc1ccc(-c2coc3cc(OC(=O)CCCCCCCCCBr)ccc3c2=O)cc1 [1e, 7-O-(10-bromodecanoyl)-formononetin] | 66.1 ± 7.33 | – | 95.1 ± 7.97 | 84 ± 11 | 65.4 ± 5.01 | – | – | – |
| CCCCCC(=O)Oc1ccc2c(=O)c(-c3ccc(OC)cc3)coc2c1 [3a, 7-O-hexanoyl-formononetin] | 49.5 ± 3.35 | – | – | 62 ± 8.71 | – | – | – | – |
| COc1ccc(-c2coc3cc(OC(=O)CCCCCBr)ccc3c2=O)cc1 [1a, 7-O-(6-bromohexanoyl)-formononetin] | 83.3 ± 8.32 | – | 83.4 ± 8.61 | – | – | – | – | – |
| COc1ccc(-c2coc3cc(OC(=O)CCCCCCCCCCCBr)ccc3c2=O)cc1 [1g, 7-O-(12-bromododecanoyl)-formononetin] | 95.5 ± 6.23 | – | 59.9 ± 7.79 | > 100 | 53.6 ± 5.15 | – | – | – |
| COc1cccc2c1C(=O)c1c(O)c3c(c(O)c1C2=O)C[C@@](O)(C(=O)CO)C[C@@H]3O[C@H]1C[C@H](N)[C@H](O)[C@H](C)O1 [DOX, doxorubicin, reference compound] | 5.97 ± 0.43 | – | – | 0.168 ± 0.06 | 15.4 ± 1.06 | 13.2 ± 0.43 | – | – |
| CCCCCCCCC(=O)Oc1ccc2c(=O)c(-c3ccc(OC)cc3)coc2c1 [3d, 7-O-nonanoyl-formononetin] | 80.2 ± 4.8 | – | 78.3 ± 9.74 | 58.3 ± 5.36 | 78.1 ± 6.21 | – | – | – |
| CCCCCCCCCCCC(=O)Oc1ccc2c(=O)c(-c3ccc(OC)cc3)coc2c1 [3g, 7-O-dodecanoyl-formononetin] | – | – | 50.4 ± 6.13 | 50.4 ± 5.78 | 66.9 ± 9.7 | 67.8 ± 8.92 | – | – |
| COc1ccc(-c2coc3cc(OC(=O)CCCCCCCC[P+](c4ccccc4)(c4ccccc4)c4ccccc4)ccc3c2=O)cc1 [2d, 7-O-(9-bromononanoyl)-formononetin-triphenylphosphine coupling] | 29.1 ± 2.58 | – | 47 ± 8.41 | 67 ± 6.97 | 31.2 ± 4.4 | 56.8 ± 4.04 | – | – |
| CCCCCCCCCC(=O)Oc1ccc2c(=O)c(-c3ccc(OC)cc3)coc2c1 [3e, 7-O-n-decanoyl-formononetin] | 48.6 ± 5.3 | – | – | – | 74 ± 11.9 | – | – | – |
| CCCCCCCC(=O)Oc1ccc2c(=O)c(-c3ccc(OC)cc3)coc2c1 [3c, 7-O-octanoyl-formononetin] | 60 ± 7.82 | – | – | – | 83 ± 5.89 | – | – | – |
| COc1ccc(-c2coc3cc(OC(=O)CCCCCCCCBr)ccc3c2=O)cc1 [1d, 7-O-(9-bromononanoi)-formononetin] | 79.2 ± 9.27 | – | 74.4 ± 4.28 | – | 86.2 ± 6.1 | – | – | – |
| COc1ccc(-c2coc3cc(OC(=O)CCCCC[P+](c4ccccc4)(c4ccccc4)c4ccccc4)ccc3c2=O)cc1 [2a, 7-O-(6-bromohexanoyl)-formononetin-triphenylphosphine coupling] | 13.4 ± 2.77 | – | 44.8 ± 2.39 | 55.2 ± 4.4 | 28.8 ± 2.45 | 72.8 ± 6.25 | – | – |
| COc1ccc(-c2coc3cc(O)ccc3c2=O)cc1 [FMN, formononetin] | 29.6 ± 1.17 | > 100 | 39.6 ± 3.26 | 76.4 ± 6.47 | 83 ± 6.25 | – | – | almost no solubility |
| CCCCCCC(=O)Oc1ccc2c(=O)c(-c3ccc(OC)cc3)coc2c1 [3b] | 65.4 ± 3.88 | – | – | – | 96.4 ± 7.37 | – | – | – |
| COc1ccc(-c2coc3cc(OC(=O)CCCCCCC[P+](c4ccccc4)(c4ccccc4)c4ccccc4)ccc3c2=O)cc1 [2c, 7-O-(8-bromooctanoyl)-formononetin-triphenylphosphine coupling] | 18.6 ± 1.6 | – | 77 ± 8.26 | 21.7 ± 1.25 | 12.2 ± 1.52 | 42.6 ± 9.44 | ~7 | – |
| COc1ccc(-c2coc3cc(OC(=O)CCCCCCCCCCBr)ccc3c2=O)cc1 [1f, 7-O-(11-bromoundecanoyl)-formononetin] | 55.6 ± 2.43 | – | 95.7 ± 8.09 | – | 74.6 ± 11.4 | – | – | – |
| COc1ccc(-c2coc3cc(OC(=O)CCCCCCCBr)ccc3c2=O)cc1 [1c, 7-O-(8-bromooctanoyl)-formononetin] | 31.4 ± 4.93 | – | 68 ± 5.33 | – | > 100 | – | – | – |
